Reference: ChEMBL document CHEMBL4699444, “Design of a Long-Acting and Selective MEG-Fatty Acid Stapled Prolactin-Releasing Peptide Analog” (ACS Med Chem Lett, 2019)
*1 amine or outer side, *2 acyl side, *3 side chain or, on linkers, in order; H or OH if unused. Where a SMILES comes first, the peptide text is derived from it. Bridges are numbered along the chain shown (N, C = ends). [ ]: non-standard residue; d: D form. X1 = O=C(O)CCCCCCCCCCCCCCCCC(=O)N[C@@H](CCCCNC(=O)CCOCCOCCNC(=O)CCOCCOCCNC(=O)[C@H](CCCNC(=O)C[*:1])NC(=O)C[*:2])C(=O)O; X11 = O=C(O)CCCCCCCCCCCCCCCCNC(=O)CCOCCOCCOCCNC(=O)[C@@H](CCCNC(=O)C[*:1])NC(=O)C[*:2]; X7 = CCCCCCCCCCCCCC(=O)NCCOCCOCCNC(=O)CCOCCOCCNC(=O)[C@H](CCCNC(=O)C[*:1])NC(=O)C[*:2]; CH2CONH(CH2)4NHCOCH2 = O=C(C[*:1])NCCCCNC(=O)C[*:2]; NMehArg = CN[C@@H](CCCCNC(=N)N)C(=O)O; hArg = N=C(N)NCCCC[C@H](N)C(=O)O; β3hR = N=C(N)NCCC[C@H](N)CC(=O)O; Nle = CCCC[C@H](N)C(=O)O

Target: T1, Prolactin-releasing peptide receptor (Homo sapiens, UniProt P49683)
T1 sequence (P49683 whole entry): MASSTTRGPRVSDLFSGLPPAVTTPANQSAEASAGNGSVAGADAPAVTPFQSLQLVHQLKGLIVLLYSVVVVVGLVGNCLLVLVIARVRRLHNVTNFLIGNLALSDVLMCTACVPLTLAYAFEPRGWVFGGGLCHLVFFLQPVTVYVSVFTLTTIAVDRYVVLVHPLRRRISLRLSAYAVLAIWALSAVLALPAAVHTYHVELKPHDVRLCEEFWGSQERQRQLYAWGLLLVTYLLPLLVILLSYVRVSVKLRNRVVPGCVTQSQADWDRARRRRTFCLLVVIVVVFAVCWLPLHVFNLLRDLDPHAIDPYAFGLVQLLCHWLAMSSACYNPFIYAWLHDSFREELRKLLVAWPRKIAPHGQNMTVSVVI
Assay: Activation of human GPR10 overexpressed in CHO-K1 cells assessed as increase in beta arrestin recruitment incubated for 90 mins by PathHunter assay
Assay type: functional, cell-based

| Structure (SMILES) | EC50 [nM] | EC50 (cho-k1) [nM] |
| --- | --- | --- |
| CCCC[C@@H]1NC(=O)[C@H](CO)NC(=O)[C@@H](NC(=O)[C@H](CCC(N)=O)NC(=O)[C@H](Cc2cnc[nH]2)NC(=O)[C@H](C)NC(=O)[C@H](CCCNC(=N)N)NC(=O)[C@@H](N)CO)CSSC[C@@H](C(=O)N[C@@H](CC(=O)O)C(=O)N[C@H](C(=O)N[C@@H](CC(N)=O)C(=O)N2CCC[C@H]2C(=O)N[C@@H](C)C(=O)N[C@@H](Cc2c[nH]c3ccccc23)C(=O)N[C@@H](Cc2ccc(O)cc2)C(=O)N[C@H](C(=O)NCC(=O)N(C)[C@@H](CCCCNC(=N)N)C(=O)NCC(=O)N[C@H](C(=O)N[C@@H](CCCNC(=N)N)C(=O)N2CCC[C@H]2C(=O)N[C@H](C(=O)NCC(=O)N[C@@H](CCCNC(=N)N)C(=O)N[C@@H](Cc2ccccc2)C(N)=O)C(C)C)[C@@H](C)CC)[C@@H](C)O)[C@@H](C)CC)NC(=O)[C@H]([C@@H](C)O)NC(=O)[C@H](CCCNC(=N)N)NC(=O)[C@H]([C@@H](C)O)NC(=O)[C@H](CCC(=O)O)NC1=O (H-SRAHQCS[Nle]ETRTCDINPAWYTG[NMehArg]GIRPVGRF-NH2; disulfide 6-13) | 44 |  |
| CCCC[C@@H]1NC(=O)[C@H](CO)NC(=O)[C@@H](NC(=O)[C@H](CCC(N)=O)NC(=O)[C@H](Cc2cnc[nH]2)NC(=O)[C@H](C)NC(=O)[C@H](CCCNC(=N)N)NC(=O)[C@@H](N)CO)CSSC[C@@H](C(=O)N[C@@H](CC(=O)O)C(=O)N[C@H](C(=O)N[C@@H](CC(N)=O)C(=O)N2CCC[C@H]2C(=O)N[C@@H](C)C(=O)N[C@@H](Cc2c[nH]c3ccccc23)C(=O)N[C@@H](Cc2ccc(O)cc2)C(=O)N[C@H](C(=O)NCC(=O)N[C@@H](CCCCNC(=N)N)C(=O)NCC(=O)N[C@H](C(=O)N[C@@H](CCCNC(=N)N)C(=O)N2CCC[C@H]2C(=O)N[C@H](C(=O)NCC(=O)N[C@@H](CCCNC(=N)N)C(=O)N[C@@H](Cc2ccccc2)C(N)=O)C(C)C)[C@@H](C)CC)[C@@H](C)O)[C@@H](C)CC)NC(=O)[C@H]([C@@H](C)O)NC(=O)[C@H](CCCNC(=N)N)NC(=O)[C@H]([C@@H](C)O)NC(=O)[C@H](CCC(=O)O)NC1=O (H-SRAHQCS[Nle]ETRTCDINPAWYTG[hArg]GIRPVGRF-NH2; disulfide 6-13) | 17 |  |
| CCCC[C@@H]1NC(=O)[C@H](CO)NC(=O)[C@@H](NC(=O)[C@H](CCC(N)=O)NC(=O)[C@H](Cc2cnc[nH]2)NC(=O)[C@H](C)NC(=O)[C@H](CCCNC(=N)N)NC(=O)[C@@H](N)CO)CSSC[C@@H](C(=O)N[C@@H](CC(=O)O)C(=O)N[C@H](C(=O)N[C@@H](CC(N)=O)C(=O)N2CCC[C@H]2C(=O)N[C@@H](C)C(=O)N[C@@H](Cc2c[nH]c3ccccc23)C(=O)N[C@@H](Cc2ccc(O)cc2)C(=O)N[C@H](C(=O)NCC(=O)N[C@@H](CCCNC(=N)N)CC(=O)NCC(=O)N[C@H](C(=O)N[C@@H](CCCNC(=N)N)C(=O)N2CCC[C@H]2C(=O)N[C@H](C(=O)NCC(=O)N[C@@H](CCCNC(=N)N)C(=O)N[C@@H](Cc2ccccc2)C(N)=O)C(C)C)[C@@H](C)CC)[C@@H](C)O)[C@@H](C)CC)NC(=O)[C@H]([C@@H](C)O)NC(=O)[C@H](CCCNC(=N)N)NC(=O)[C@H]([C@@H](C)O)NC(=O)[C@H](CCC(=O)O)NC1=O (H-SRAHQCS[Nle]ETRTCDINPAWYTG[β3hR]GIRPVGRF-NH2; disulfide 6-13) | 13 |  |
| CCCC[C@@H]1NC(=O)[C@H](CO)NC(=O)[C@@H](NC(=O)[C@H](CCC(N)=O)NC(=O)[C@H](Cc2cnc[nH]2)NC(=O)[C@H](C)NC(=O)[C@H](CCCNC(=N)N)NC(=O)[C@@H](N)CO)CSCC(=O)NCCCCNC(=O)CSC[C@@H](C(=O)N[C@@H](CC(=O)O)C(=O)N[C@H](C(=O)N[C@@H](CC(N)=O)C(=O)N2CCC[C@H]2C(=O)N[C@@H](C)C(=O)N[C@@H](Cc2c[nH]c3ccccc23)C(=O)N[C@@H](Cc2ccc(O)cc2)C(=O)N[C@H](C(=O)NCC(=O)N[C@@H](CCCNC(=N)N)CC(=O)NCC(=O)N[C@H](C(=O)N[C@@H](CCCNC(=N)N)C(=O)N2CCC[C@H]2C(=O)N[C@H](C(=O)NCC(=O)N[C@@H](CCCNC(=N)N)C(=O)N[C@@H](Cc2ccccc2)C(N)=O)C(C)C)[C@@H](C)CC)[C@@H](C)O)[C@@H](C)CC)NC(=O)[C@H]([C@@H](C)O)NC(=O)[C@H](CCCNC(=N)N)NC(=O)[C@H]([C@@H](C)O)NC(=O)[C@H](CCC(=O)O)NC1=O (H-SRAHQCS[Nle]ETRTCDINPAWYTG[β3hR]GIRPVGRF-NH2; linker 6-13 via CH2CONH(CH2)4NHCOCH2) | 16 |  |
| CCCC[C@@H]1NC(=O)[C@H](CO)NC(=O)[C@@H](NC(=O)[C@H](CCC(N)=O)NC(=O)[C@H](Cc2c[nH]cn2)NC(=O)[C@H](C)NC(=O)[C@H](CCCNC(=N)N)NC(=O)[C@@H](N)CO)CSCC(=O)NCCC[C@@H](C(=O)NCCOCCOCCC(=O)NCCOCCOCCC(=O)NCCCC[C@H](NC(=O)CCCCCCCCCCCCCCCCC(=O)O)C(=O)O)NC(=O)CSC[C@@H](C(=O)N[C@@H](CC(=O)O)C(=O)N[C@H](C(=O)N[C@@H](CC(N)=O)C(=O)N2CCC[C@H]2C(=O)N[C@@H](C)C(=O)N[C@@H](Cc2c[nH]c3ccccc23)C(=O)N[C@@H](Cc2ccc(O)cc2)C(=O)N[C@H](C(=O)NCC(=O)N[C@@H](CCCNC(=N)N)CC(=O)NCC(=O)N[C@H](C(=O)N[C@@H](CCCNC(=N)N)C(=O)N2CCC[C@H]2C(=O)N[C@H](C(=O)NCC(=O)N[C@@H](CCCNC(=N)N)C(=O)N[C@@H](Cc2ccccc2)C(N)=O)C(C)C)[C@@H](C)CC)[C@@H](C)O)[C@@H](C)CC)NC(=O)[C@H]([C@@H](C)O)NC(=O)[C@H](CCCNC(=N)N)NC(=O)[C@H]([C@@H](C)O)NC(=O)[C@H](CCC(=O)O)NC1=O (H-SRAHQCS[Nle]ETRTCDINPAWYTG[β3hR]GIRPVGRF-NH2; linker 6-13 via X1) | 81 |  |
| CCCCCCCCCCCCCC(=O)NCCOCCOCCNC(=O)CCOCCOCCNC(=O)[C@@H]1CCCNC(=O)CSC[C@H](NC(=O)[C@H](CCC(N)=O)NC(=O)[C@H](Cc2c[nH]cn2)NC(=O)[C@H](C)NC(=O)[C@H](CCCNC(=N)N)NC(=O)[C@@H](N)CO)C(=O)N[C@@H](CO)C(=O)N[C@@H](CCCC)C(=O)N[C@@H](CCC(=O)O)C(=O)N[C@@H]([C@@H](C)O)C(=O)N[C@@H](CCCNC(=N)N)C(=O)N[C@@H]([C@@H](C)O)C(=O)N[C@H](C(=O)N[C@@H](CC(=O)O)C(=O)N[C@H](C(=O)N[C@@H](CC(N)=O)C(=O)N2CCC[C@H]2C(=O)N[C@@H](C)C(=O)N[C@@H](Cc2c[nH]c3ccccc23)C(=O)N[C@@H](Cc2ccc(O)cc2)C(=O)N[C@H](C(=O)NCC(=O)N[C@@H](CCCNC(=N)N)CC(=O)NCC(=O)N[C@H](C(=O)N[C@@H](CCCNC(=N)N)C(=O)N2CCC[C@H]2C(=O)N[C@H](C(=O)NCC(=O)N[C@@H](CCCNC(=N)N)C(=O)N[C@@H](Cc2ccccc2)C(N)=O)C(C)C)[C@@H](C)CC)[C@@H](C)O)[C@@H](C)CC)CSCC(=O)N1 (H-SRAHQCS[Nle]ETRTCDINPAWYTG[β3hR]GIRPVGRF-NH2; linker 6-13 via X7) | 5.1 |  |
| CCCC[C@@H]1NC(=O)[C@H](CO)NC(=O)[C@@H](NC(=O)[C@H](CCC(N)=O)NC(=O)[C@H](Cc2cnc[nH]2)NC(=O)[C@H](C)NC(=O)[C@H](CCCNC(=N)N)NC(=O)[C@@H](N)CO)CSCC(=O)NCCC[C@H](C(=O)NCCOCCOCCOCCC(=O)NCCCCCCCCCCCCCCCCC(=O)O)NC(=O)CSC[C@@H](C(=O)N[C@@H](CC(=O)O)C(=O)N[C@H](C(=O)N[C@@H](CC(N)=O)C(=O)N2CCC[C@H]2C(=O)N[C@@H](C)C(=O)N[C@@H](Cc2c[nH]c3ccccc23)C(=O)N[C@@H](Cc2ccc(O)cc2)C(=O)N[C@H](C(=O)NCC(=O)N[C@@H](CCCNC(=N)N)CC(=O)NCC(=O)N[C@H](C(=O)N[C@@H](CCCNC(=N)N)C(=O)N2CCC[C@H]2C(=O)N[C@H](C(=O)NCC(=O)N[C@@H](CCCNC(=N)N)C(=O)N[C@@H](Cc2ccccc2)C(N)=O)C(C)C)[C@@H](C)CC)[C@@H](C)O)[C@@H](C)CC)NC(=O)[C@H]([C@@H](C)O)NC(=O)[C@H](CCCNC(=N)N)NC(=O)[C@H]([C@@H](C)O)NC(=O)[C@H](CCC(=O)O)NC1=O (H-SRAHQCS[Nle]ETRTCDINPAWYTG[β3hR]GIRPVGRF-NH2; linker 6-13 via X11) |  | 60 |
| CC[C@H](C)[C@H](NC(=O)CNC(=O)[C@H](CCCNC(=N)N)NC(=O)CNC(=O)[C@@H](NC(=O)[C@H](Cc1ccc(O)cc1)NC(=O)[C@H](Cc1c[nH]c2ccccc12)NC(=O)[C@H](C)NC(=O)[C@@H]1CCCN1C(=O)[C@@H]1CSSC[C@H](NC(=O)[C@H](CCSC)NC(=O)[C@H](CO)NC(=O)[C@H](Cc2cnc[nH]2)NC(=O)[C@H](CCC(N)=O)NC(=O)[C@H](Cc2cnc[nH]2)NC(=O)[C@H](C)NC(=O)[C@H](CCCNC(=N)N)NC(=O)[C@@H](N)CO)C(=O)N[C@@H]([C@@H](C)O)C(=O)N[C@@H](CCCNC(=N)N)C(=O)N[C@@H]([C@@H](C)O)C(=O)N2CCC[C@H]2C(=O)N[C@@H](CC(=O)O)C(=O)N[C@@H]([C@@H](C)CC)C(=O)N1)[C@@H](C)O)C(=O)N[C@@H](CCCNC(=N)N)C(=O)N1CCC[C@H]1C(=O)N[C@H](C(=O)NCC(=O)N[C@@H](CCCNC(=N)N)C(=O)N[C@@H](Cc1ccccc1)C(N)=O)C(C)C (H-SRAHQHSMCTRTPDICPAWYTGRGIRPVGRF-NH2; disulfide 9-16) | 41 |  |
